How the values were obtained:
229E-GFP = test: microbe, parasite or virus in culture; type: cell-based, human coronavirus; settings: for EC90 / EC50: 72 h; for EC50: read-out: ECso; for infection by 229E-GFP: result in words, micromolar concentrations
SARS-CoV-2 [1] = test: SARS-CoV-2 cell monolayer protection assay; type: cell-based, SARS-CoV-2 strain NL/2020; settings: Severe acute respiratory syndrome coronavirus 2, Vero C1008, 72 h; for EC100: read-out: concentration protecting completely / around 100% of the cell monolayer
SARS-CoV-2 [2] = type: cell-based, SARS-CoV-2 strain NL/2020
SARS-CoV-2 [3] = test: Intracellular viral RNA quantitation (RT-qPCR), with time of addition; type: cell-based, SARS-CoV-2 strain NL/2020
[4] = system: retroviral vectors pseudotyped with SARS-CoV-2 Spike protein (SARS2pp); test: microbe, parasite or virus in culture; type: cell-based; settings: Severe acute respiratory syndrome coronavirus 2, Vero C1008, 48 h
Vero-E6 cells = settings: uninfected Vero-E6 cells, 200 to 3.125 µM, crystal violet
in vitro = settings: human, huh7-lunet#3 cells

With `CC[C@H]1OC(=O)[C@H](C)[C@@H](O[C@H]2C[C@@](C)(OC)[C@@H](O)[C@H](C)O2)[C@H](C)[C@@H](O[C@@H]2O[C@H](C)C[C@H](N(C)C)[C@H]2O)[C@](C)(O)C[C@@H](C)CN(C)[C@H](C)[C@@H](O)[C@]1(C)O` [Azithromycin] the EC90 (229E-GFP) was 18.8 ± 2.5 µM, the EC50 (229E-GFP) was 6.1 ± 2.4 µM and the “infection by 229E-GFP” value (229E-GFP) was “blocked viral infection”. For the same compound, the EC50 (SARS-CoV-2 [1]) was 75 µM, the EC100 (SARS-CoV-2 [1]) was 200 µM and the “progeny virus production (TCID50)” value (SARS-CoV-2 [2]) was “undetectable levels”. For the same compound, the “viral RNA accumulation” value (SARS-CoV-2 [3]) was “significantly reduced viral RNA accumulation in a dose dependent manner”, the EC50 [4] was ~30 µM and the “cytotoxicity in Vero-E6 cells” value (Vero-E6 cells) was “not toxic at any of the tested concentrations”. For the same compound, the CC50 at 72 h (in vitro) was > 50 µM.
With `CO/N=C(\C(=O)N[C@@H]1C(=O)N2C(C(=O)O)=C(COC(N)=O)CS[C@H]12)c1ccco1` [Cefuroxime] the EC90 (229E-GFP) was > 50 µM, the EC50 (229E-GFP) was > 50 µM and the “infection by 229E-GFP” value (229E-GFP) was “not significantly affected”. The CC50 at 72 h (in vitro) was > 50 µM.
In the case of `CC[C@H]1OC(=O)[C@H](C)[C@@H](O[C@H]2C[C@@](C)(OC)[C@@H](O)[C@H](C)O2)[C@H](C)[C@@H](O[C@@H]2O[C@H](C)C[C@H](N(C)C)[C@H]2O)[C@](C)(OC)C[C@@H](C)C(=O)[C@H](C)[C@@H](O)[C@]1(C)O` [Clarithromycin], the EC90 (229E-GFP) is reported as 46.3 ± 4.8 µM, the EC50 (229E-GFP) is reported as 17.3 ± 9.2 µM and the “infection by 229E-GFP” value (229E-GFP) is reported as “blocked viral infection”. For the same compound, the EC50 (SARS-CoV-2 [1]) was 60 µM, the EC100 (SARS-CoV-2 [1]) was 100 µM and the “progeny virus production (TCID50)” value (SARS-CoV-2 [2]) was “undetectable levels”. For the same compound, the “viral RNA accumulation” value (SARS-CoV-2 [3]) was “significantly reduced viral RNA accumulation in a dose dependent manner”, the EC50 [4] was ~30 µM and the CC50 at 72 h (in vitro) was > 50 µM.
With `CC[C@H]1OC(=O)[C@H](C)[C@@H](O[C@H]2C[C@@](C)(OC)[C@@H](O)[C@H](C)O2)[C@H](C)[C@@H](O[C@@H]2O[C@H](C)C[C@H](N(C)C)[C@H]2O)[C@](C)(O)C[C@@H](C)C(=O)[C@H](C)[C@@H](O)[C@]1(C)O` [Erithromycin, Erythromycin] the EC90 (229E-GFP) was > 50 µM, the EC50 (229E-GFP) was > 50 µM and the “infection by 229E-GFP” value (229E-GFP) was “not significantly affected”. The CC50 at 72 h (in vitro) was > 50 µM.
For `CC[C@H]1OC(=O)[C@H](C)[C@@H](O[C@H]2C[C@@](C)(OC)[C@@H](O)[C@H](C)O2)[C@H](C)[C@@H](O[C@@H]2O[C@H](C)C[C@H](N(C)C)[C@H]2O)[C@](C)(O)C[C@@H](C)/C(=N\OC)[C@H](C)[C@@H](O)[C@]1(C)O` [Lexithromycin], the EC90 (229E-GFP) was 16.3 ± 6 µM, the EC50 (229E-GFP) was 3 ± 1.4 µM and the “infection by 229E-GFP” value (229E-GFP) was “blocked viral infection”. For the same compound, the EC50 (SARS-CoV-2 [1]) was 25 µM, the EC100 (SARS-CoV-2 [1]) was 50 µM and the “progeny virus production (TCID50)” value (SARS-CoV-2 [2]) was “undetectable levels”. For the same compound, the “viral RNA accumulation” value (SARS-CoV-2 [3]) was “significantly reduced viral RNA accumulation in a dose dependent manner”, the EC50 [4] was ~18 µM and the “cytotoxicity in Vero-E6 cells” value (Vero-E6 cells) was “the most toxic compound”. The CC50 at 72 h (in vitro) was > 50 µM.

From patent publication EP3932409A1 (priority 2020, dated 2022)
